Assay results published in patent US20070061084A1, “Method, system, and knowledge repository for identifying a secondary metabolite from a microorganism” (Ecopia BioSciences, Inc., priority 2002, published 2007).
Values after ≈ are worked out from the molar mass of the structure shown.

Experiments:
[1] = target: T1, Adenosine A3 Receptor (Homo sapiens, UniProt P0DMS8); details: radioligand, historical value; cited from earlier work
T1 sequence (P0DMS8 1-318): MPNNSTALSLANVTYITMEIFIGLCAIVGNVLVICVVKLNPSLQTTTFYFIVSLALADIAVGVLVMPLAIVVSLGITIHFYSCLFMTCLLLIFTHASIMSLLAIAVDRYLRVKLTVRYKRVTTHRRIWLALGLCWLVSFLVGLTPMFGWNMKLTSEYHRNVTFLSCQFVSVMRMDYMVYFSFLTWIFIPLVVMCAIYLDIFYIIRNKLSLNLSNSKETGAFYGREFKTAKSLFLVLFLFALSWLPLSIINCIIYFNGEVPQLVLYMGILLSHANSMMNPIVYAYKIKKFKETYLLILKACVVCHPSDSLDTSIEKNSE

[2] = system: Saccharomyces cerevisiae FHCRC 50514; test: Disk diffusion assay, antifungal bioactivity; assay type: cell-based; details: 37° C., 24 hours
Procedure: Antifungal bioactivity of Compound 1 (0506), in comparison to Amphotericin B, against Saccharomyces cerevisiae FHCRC 50514 was determined using a disk diffusion assay. Such an assay is commonly used to reveal activity of antifungal drugs against fungi (Wong G K, Griffith S, Kojima I and Demain A L, J. Antibiotics, 51(5): 487-491, 1998).
Inoculum (100 μL) was added to 100 mL of RPMI agar (kept at 55° C.) to give a final suspension of about 1×10^5 CFU/mL, and poured into 150 mm Petri dishes. Plates were used immediately upon setting of the agar.
Compound 1 (0506) was diluted in DMSO to a concentration of 3.2 mg/mL. A 20 μL sample (64 μg) was deposited on the agar surface of prepared plates. Amphotericin solution in DMSO (5 mg/mL; 10 μL; 50 μg) was also deposited, in a separate location, on the agar surface. A negative control (10 μL of stock solution) was also deposited in a separate location on the surface of the agar. The plates were incubated at 37° C. for 24 hours.

[3] = system: Saccharomyces cerevisiae Δpdr1/pdr3/erg6 (FHCRC 50514); test: Broth dilution antifungal susceptibility (NCCLS M27A), MIC; details: 48 h, read-out: minimum inhibitory concentration (MIC)
[4] = target: T2, Angiotensin Converting Enzyme (Oryctolagus cuniculus, UniProt P12822); test: ACE enzyme inhibition assay (spectrometric quantitation of FAPGG); assay type: biochemical; details: 10 μM in 1% DMSO; rabbit lung enzyme
T2 construct: ACE: Source: rabbit lung; from tissue; host or cells: rabbit lung
T2 sequence (P12822 34-1310): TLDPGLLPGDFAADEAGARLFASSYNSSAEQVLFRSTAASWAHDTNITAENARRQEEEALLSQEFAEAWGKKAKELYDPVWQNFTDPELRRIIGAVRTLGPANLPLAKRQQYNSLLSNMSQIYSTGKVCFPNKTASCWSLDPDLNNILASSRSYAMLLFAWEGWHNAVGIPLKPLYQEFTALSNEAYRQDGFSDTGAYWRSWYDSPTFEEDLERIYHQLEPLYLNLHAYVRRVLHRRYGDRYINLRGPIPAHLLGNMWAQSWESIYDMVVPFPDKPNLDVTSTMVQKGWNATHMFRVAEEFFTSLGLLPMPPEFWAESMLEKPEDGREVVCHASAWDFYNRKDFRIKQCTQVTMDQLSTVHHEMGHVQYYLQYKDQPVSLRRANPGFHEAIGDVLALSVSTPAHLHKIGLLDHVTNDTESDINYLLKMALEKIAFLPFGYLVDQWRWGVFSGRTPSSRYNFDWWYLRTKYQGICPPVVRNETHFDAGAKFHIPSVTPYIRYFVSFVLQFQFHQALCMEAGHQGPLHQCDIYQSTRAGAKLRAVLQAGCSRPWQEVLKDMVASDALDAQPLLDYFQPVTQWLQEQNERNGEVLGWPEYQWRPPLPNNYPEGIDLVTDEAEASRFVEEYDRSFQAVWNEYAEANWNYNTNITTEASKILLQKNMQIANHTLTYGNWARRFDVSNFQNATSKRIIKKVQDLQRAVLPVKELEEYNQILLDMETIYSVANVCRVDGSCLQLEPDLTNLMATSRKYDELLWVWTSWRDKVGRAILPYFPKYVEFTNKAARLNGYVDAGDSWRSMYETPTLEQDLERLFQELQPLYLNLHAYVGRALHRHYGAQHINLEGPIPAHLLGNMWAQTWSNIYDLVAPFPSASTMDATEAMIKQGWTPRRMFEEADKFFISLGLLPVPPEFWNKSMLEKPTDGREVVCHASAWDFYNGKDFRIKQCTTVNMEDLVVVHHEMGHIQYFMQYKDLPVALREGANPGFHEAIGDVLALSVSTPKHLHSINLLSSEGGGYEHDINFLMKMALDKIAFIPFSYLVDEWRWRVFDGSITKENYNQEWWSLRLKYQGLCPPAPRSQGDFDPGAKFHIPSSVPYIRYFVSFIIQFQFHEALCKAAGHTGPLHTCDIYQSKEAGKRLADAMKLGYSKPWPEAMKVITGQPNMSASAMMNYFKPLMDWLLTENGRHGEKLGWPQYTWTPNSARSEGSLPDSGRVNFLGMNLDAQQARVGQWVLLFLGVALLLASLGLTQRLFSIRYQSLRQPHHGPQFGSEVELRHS

[5] = target: T3, Protein Serine/Threonine Kinase MEK1 (Oryctolagus cuniculus, UniProt P29678); test: MEK1 enzyme inhibition assay (Elisa quantitation of MBP-P); assay type: biochemical; details: 10 μM in 1% DMSO; rabbit recombinant E. coli
T3 construct: made in house; host or cells: E. coli
T3 sequence (P29678 whole entry): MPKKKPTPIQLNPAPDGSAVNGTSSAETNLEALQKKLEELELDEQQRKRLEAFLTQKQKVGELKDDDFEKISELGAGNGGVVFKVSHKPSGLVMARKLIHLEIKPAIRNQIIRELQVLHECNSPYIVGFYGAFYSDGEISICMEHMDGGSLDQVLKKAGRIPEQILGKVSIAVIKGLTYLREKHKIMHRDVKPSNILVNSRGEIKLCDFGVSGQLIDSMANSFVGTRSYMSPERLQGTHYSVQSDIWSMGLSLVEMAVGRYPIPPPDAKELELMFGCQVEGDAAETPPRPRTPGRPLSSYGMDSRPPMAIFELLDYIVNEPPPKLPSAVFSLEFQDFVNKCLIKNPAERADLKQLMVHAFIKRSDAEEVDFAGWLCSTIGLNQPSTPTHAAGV

[6] = target: T1, Adenosine A3 Receptor; test: Adenosine A3 radioligand binding assay; set-up: expressed in transfected cells; host or cells: CHO-K1 cells; details: 10 μM in 1% DMSO; human recombinant CHO-K1 cells; negative value = stimulation of binding
[7] = system: Candida indicators; test: Bioactivity screen of HPLC/MS fractions of organism 100 extracts; assay type: cell-based; details: compound of mass 1113 Da from organism 100 extracts
Procedure: An extract containing the putative polyene was obtained from organism 100 using a metabolomic approach to identify conditions under which the product of locus 100C was expressed. This approach obtains analytical measurement of all low molecular weight metabolites in a given organism at a specific time when grown under specific culture conditions. Organism 100 was grown in 48 different media, namely AA, AB, AC, BA, CA, CB, CI, DA, DY, DZ, EA, ES, ET, FA, GA, IB, JA, KA, KE, LA, MA, MC, MU, NA, NE, NF, NG, OA, PA, PB, QB, RA, RB, RC, RM, SF, SP, TA, VA, VB, WA, WS, XA, YA, ZA. Metabolites were extracted from whole cell cultures by adding of an equal volume of methanol. After removal of solid debris, the extract was concentrated and injected into an HPLC/MS system in which the metabolites were analyzed to obtain UV and mass data and purified fractions are collected in 96-well plates and assayed for multiple activities including antibiotic activity against gram-positive and gram-negative bacteria, and fungi.
Finally, the extracts generated by growth of organism 100 under each of the 48 media were analyzed for metabolites having physical, chemical and biological characteristics of polyenes. […]

## COc1cc2nc(N3CCN(C(=O)c4ccco4)CC3)nc(N)c2cc1OC [[H3] Prazosin, Prazosin]
[1]
  Kd: 290 pM

## C[C@@H]1[C@H](O)[C@@H](C)/C=C/C=C/C=C/C=C/C=C/C=C/C=C/[C@H](O[C@@H]2O[C@H](C)[C@@H](O)[C@H](N)[C@@H]2O)C[C@@H]2O[C@](O)(C[C@@H](O)C[C@@H](O)[C@H](O)CC[C@@H](O)C[C@@H](O)CC(=O)O[C@H]1C)C[C@H](O)[C@H]2C(=O)O [Amphotericin B, reference compound]
[2]; at 50 μg deposited on agar
  zone of inhibition (diameter): 23.9 mm

## C/C=C(\C)C(O)C(C)/C=C/C=C(\C)CCC(O)CC1=C(C)C(=O)C(C)(O)O1 (stereo not drawn) [Compound 2]
[3]
  MIC: 64 µg/mL (≈ 169 µM)

## CNC(CCCN(O)C(=O)C(CO)NC(=O)C(N)CCCN(C=O)C(=N)N)C(=O)NC(CO)C(=O)NC(CO)C(=O)NC(CCC(N)=O)C(=O)O (stereo not drawn) [Compound 1 (0506)]
[2]; at 64 μg deposited on agar
  zone of inhibition (diameter): 36.4 mm
[4]
  inhibition at 10 µM: 50%
[5]
  inhibition at 10 µM: 63%
[6]
  inhibition at 10 µM: -101%

## OC(Cn1cncn1)(Cn1cncn1)c1ccc(F)cc1F [Fluconazole, reference compound]
[3]
  MIC: 0.25 to 0.5 µg/mL (≈ 0.816 to 1.63 µM)

## CC1/C=C/C=C/C=C/C=C/C=C/C=C/C=C/C(OC2O[C@H](C)C(O)[C@H](N)C2O)CC2OC(O)(CC(O)CC(O)CC(O)CC(O)C[C@H](O)CC(O)CC(=O)OC1C(C)CCC(O)CC(=O)c1ccc(N)cc1)CC(O)C2C(=O)O (stereo partly drawn) [ayfactin]
[7]
  antifungal activity: antifungal activity
